Laboratory results: patent publication US12667101B2, “Picolinamide derivatives useful as agricultural fungicides” (GLOBACHEM NV, priority 2019, dated 2026)

Each compound was assayed on Zymoseptoria tritici (assay: Fungicidal activity screen in amended agar, 96 well plates). Details: 168 h, 1% potato dextrose agar amended to 20, 2, 0.2 and 0.02 ppm, 10,000 spores/mL, 18° C., assessed after 7 days, read-out: Zymoseptoria (EC50 ranking of fungal growth vs DMSO controls).
Format: cell-based
Description: Compounds were screened in 96 well plates with 10 compounds per plate. Each compound was screened using agar amended to 20, 2, 0.2 and 0.02 ppm of the test material. Proline at 50 and 10 ppm and 0.2% DMSO were used respectively as positive and negative controls. Each test concentration and standard were tested twice on a plate.
Compounds were screened against Zymoseptoria tritici. The agar used in the test was 1% potato dextrose agar. Sufficient spores were added to the appropriate agar to give 10,000 spores/mL agar.
A ×10 stock solution in 2% DMSO was produced for each dose i.e. 200, 20, 2 and 0.2 ppm, and 10 μl of this added to the appropriate wells on the plate. An equivalent amount of 2% DMSO and Proline stock at 500 and 100 ppm were added for the controls. To each well, 90 μl of the appropriate agar spore suspension was added to give the final well concentrations outlined in the first paragraph.
Plates were incubated at room temperature (18° C.) and assessed after 7 days.
The amount of fungal growth in each well was compared to the DMSO controls and scored according to the following key: • A—EC50<2 ppm • B—2≤EC50<20 • C—EC50≥20 • D—No activity detected at the highest dose tested • NT—Not tested
With `COc1ccnc2c(=O)n(-c3ccc4nc(Sc5ccccc5Cl)ccc4c3)c(=S)oc12` [Example 43, 3-(2-((2-chlorophenyl)thio)quinolin-6-yl)-8-methoxy-2-thioxo-2,3-dihydro-4H-pyrido[2,3-e][1,3]oxazin-4-one] the EC50 was ≥ 20 µg/mL.
With `COc1ccnc2c(=O)n(-c3ccc4nc(Oc5cccnc5Cl)ccc4c3)c(=S)oc12` [Example 44, 3-(2-((2-chloropyridin-3-yl)oxy)quinolin-6-yl)-8-methoxy-2-thioxo-2,3-dihydro-4H-pyrido[2,3-e][1,3]oxazin-4-one] the EC50 was ≥ 20 µg/mL.
For `COc1ccnc2c(=O)n(-c3ccc4nc(Sc5cccnc5Cl)ccc4c3)c(=S)oc12` [Example 45, 3-(2-((2-chloropyridin-3-yl)thio)quinolin-6-yl)-8-methoxy-2-thioxo-2,3-dihydro-4H-pyrido[2,3-e][1,3]oxazin-4-one], the EC50 was ≥ 20 µg/mL.
With `COc1ccnc2c(=O)n(-c3ccc4nc(N(C)c5cccnc5Cl)ccc4c3)c(=S)oc12` [Example 46, 3-(2-((2-chloropyridin-3-yl)(methyl)amino)quinolin-6-yl)-8-methoxy-2-thioxo-2,3-dihydro-4H-pyrido[2,3-e][1,3]oxazin-4-one] the EC50 was ≥ 20 µg/mL.
With `COc1ccnc(C(=O)Nc2ccc3nc(OC(C)C)ccc3c2)c1OC(C)=O` [Example 47, 2-((2-isopropoxyquinolin-6-yl)carbamoyl)-4-methoxypyridin-3-yl acetate] the EC50 was < 2 µg/mL.
